In PMC12291913 (Antibiotics, 2025):
Converted amounts (≈) assume the structure as drawn. “And” between values parts separate entries of the source, which are not always exact repeats. Equal values may be shown once. Read-outs that look alike come from different tables or passages of the source.

Columns and labels:
[1] = system: M. avium clinical isolate Koav 3 (GyrA Asp95Gly); type: cell-based, M. avium subsp. hominissuis
[2] = system: M. avium clinical isolate Koav 11 (GyrA Asp95Tyr); type: cell-based, M. avium subsp. hominissuis
[3] = system: M. avium clinical isolate Koav 13 (GyrA Asp95Gly); type: cell-based, M. avium subsp. hominissuis
[4] = system: M. avium clinical isolate Cl-A-2 (GyrA Asp95Tyr); type: cell-based, M. avium subsp. hominissuis
[5] = system: M. avium clinical isolate Koav 1 (WT); assay: microbe, parasite or virus in culture; type: cell-based; settings: Mycobacterium avium, drug alone, day 14, read-out: MIC
[6] = system: M. avium clinical isolate Koav 2 (WT); assay: microbe, parasite or virus in culture; type: cell-based; settings: Mycobacterium avium, drug alone, day 14
[7] = system: M. avium clinical isolate Koav 15 (WT); assay: microbe, parasite or virus in culture; type: cell-based; settings: Mycobacterium avium, drug alone, day 14, read-out: MIC
[8] = system: M. avium clinical isolate Koav 19 (WT); assay: microbe, parasite or virus in culture; type: cell-based; settings: Mycobacterium avium, drug alone, day 14, read-out: MIC
[9] = system: M. avium clinical isolate Koav 20 (WT); assay: microbe, parasite or virus in culture; type: cell-based; settings: Mycobacterium avium, drug alone, day 14, read-out: MIC
[10] = system: M. avium clinical isolate Koav 21 (WT); assay: microbe, parasite or virus in culture; type: cell-based; settings: Mycobacterium avium, drug alone, day 14, read-out: MIC
[11] = system: M. avium clinical isolate Koav 25 (WT); assay: microbe, parasite or virus in culture; type: cell-based; settings: Mycobacterium avium, drug alone, day 14, read-out: MIC
[12] = system: M. avium clinical isolate Koav 3 (GyrA Asp95Gly); type: cell-based, M. avium subsp. hominissuis; remark: listed apart in the source
[13] = system: M. avium clinical isolate Koav 13 (GyrA Asp95Gly); type: cell-based, M. avium subsp. hominissuis; remark: listed apart in the source
[14] = system: M. avium clinical isolate Cl-A-2 (GyrA Asp95Tyr); type: cell-based, M. avium subsp. hominissuis; remark: listed apart in the source
[15] = system: M. avium clinical isolate Koav 1 (WT); assay: microbe, parasite or virus in culture; type: cell-based; settings: checkerboard
[16] = system: M. avium clinical isolate Koav 2 (WT); assay: microbe, parasite or virus in culture; type: cell-based; settings: checkerboard; for MIC: Mycobacterium avium
[17] = system: M. avium clinical isolate Koav 15 (WT); assay: microbe, parasite or virus in culture; type: cell-based; settings: checkerboard; for MIC: Mycobacterium avium
[18] = system: M. avium clinical isolate Koav 19 (WT); assay: microbe, parasite or virus in culture; type: cell-based; settings: for MIC: Mycobacterium avium
[19] = system: M. avium clinical isolate Koav 20 (WT); assay: microbe, parasite or virus in culture; type: cell-based; settings: Mycobacterium avium, Koav 20 (K 20), WT; checkerboard, single replicates; read-out: MIC of drug alone
[20] = system: M. avium clinical isolate Koav 21 (WT); assay: microbe, parasite or virus in culture; type: cell-based; settings: checkerboard; for MIC: Mycobacterium avium
[21] = system: M. avium clinical isolate Koav 25 (WT); assay: microbe, parasite or virus in culture; type: cell-based; settings: for MIC: Mycobacterium avium

## CC[C@@H](CO)NCCN[C@@H](CC)CO [EMB, ethambutol]
[1]
  MIC: 16 µg/mL (≈ 78.3 µM)
[2]
  MIC: 16 µg/mL (≈ 78.3 µM)
[3]
  MIC: 32 µg/mL (≈ 157 µM)
[4]
  MIC: 16 µg/mL (≈ 78.3 µM)
[5]
  MIC: 2 µg/mL (≈ 9.79 µM)
[6]
  MIC: 16 µg/mL (≈ 78.3 µM)
[7]
  MIC: 16 µg/mL (≈ 78.3 µM)
[8]
  MIC: 16 µg/mL (≈ 78.3 µM)
[9]
  MIC: 2 µg/mL (≈ 9.79 µM)
[10]
  MIC: 32 µg/mL (≈ 157 µM)
[11]
  MIC: 32 µg/mL (≈ 157 µM)
[12]
  MIC of INH or EMB with 1 µg/ml MXF: 4 µg/mL and 2 µg/mL
[13]
  MIC of INH or EMB with 1 µg/ml MXF: 16 µg/mL
  MIC of INH or EMB with WQ-3810: 8 µg/mL and 16 µg/mL
  MIC of drug alone: 32 µg/mL
[14]
  MIC of INH or EMB with 1 µg/ml MXF: 2 µg/mL and 4 µg/mL
  MIC of drug alone: 16 µg/mL
[15]; Koav 1 (K 1), WT
  MIC of INH or EMB with WQ-3810: 2 µg/mL
[15]; Koav 1 (K 1), WT, single replicates
  MIC of drug alone: 8 µg/mL and 4 µg/mL and 2 µg/mL
[15]; Mycobacterium avium, read-out: MIC of INH or EMB with WQ-3810, Koav 1 (K 1), WT
  MIC: 4 µg/mL
[16]; Koav 2 (K 2), WT, single replicates
  MIC of drug alone: 32 µg/mL
[16]; Koav 2 (K 2), WT, single replicates, read-out: MIC of drug alone
  MIC: 16 µg/mL
[16]; read-out: MIC of INH or EMB with WQ-3810, Koav 2 (K 2), WT
  MIC: 8 µg/mL
[17]; Koav 15 (K 15), WT
  MIC of INH or EMB with 1 µg/ml MXF: 4 µg/mL
  MIC of INH or EMB with WQ-3810: 8 µg/mL
[17]; Koav 15 (K 15), WT, single replicates, read-out: MIC of drug alone
  MIC: 16 µg/mL
[17]; read-out: MIC of INH or EMB with 1 µg/ml MXF, Koav 15 (K 15), WT
  MIC: 8 µg/mL
[17]; read-out: MIC of INH or EMB with WQ-3810, Koav 15 (K 15), WT
  MIC: 4 µg/mL
[18]; Koav 19 (K 19), WT, checkerboard
  MIC of INH or EMB with WQ-3810: 8 µg/mL
[18]; Koav 19 (K 19), WT, checkerboard, single replicates
  MIC of drug alone: 16 µg/mL
[18]; Koav 19 (K 19), WT, pair with MXF
  FIC of INH or EMB: 0.5 µg/mL
[18]; Koav 19 (K 19), WT, pair with WQ-3810
  FIC of INH or EMB: 0.5 µg/mL
[18]; Koav 19 (K 19), WT, checkerboard, single replicates, read-out: MIC of drug alone
  MIC: 8 µg/mL
[18]; read-out: MIC of INH or EMB with 1 µg/ml MXF, Koav 19 (K 19), WT, checkerboard
  MIC: 8 µg/mL
[18]; read-out: MIC of INH or EMB with WQ-3810, Koav 19 (K 19), WT, checkerboard
  MIC: 4 µg/mL
[19]
  MIC: 2 µg/mL
[20]; Koav 21 (K 21), WT
  MIC of INH or EMB with 1 µg/ml MXF: 1 µg/mL
[20]; Koav 21 (K 21), WT, single replicates, read-out: MIC of drug alone
  MIC: 32 µg/mL
[20]; read-out: MIC of INH or EMB with 1 µg/ml MXF, Koav 21 (K 21), WT
  MIC: 2 µg/mL
[20]; read-out: MIC of INH or EMB with WQ-3810, Koav 21 (K 21), WT
  MIC: 16 µg/mL
[21]; Koav 25 (K 25), WT, checkerboard
  MIC of INH or EMB with 1 µg/ml MXF: 8 µg/mL
[21]; Koav 25 (K 25), WT, pair with WQ-3810
  FIC of INH or EMB: 0.5 µg/mL
[21]; Koav 25 (K 25), WT, checkerboard, single replicates, read-out: MIC of drug alone
  MIC: 32 µg/mL
[21]; read-out: MIC of INH or EMB with 1 µg/ml MXF, Koav 25 (K 25), WT, checkerboard
  MIC: 16 µg/mL
[21]; read-out: MIC of INH or EMB with WQ-3810, Koav 25 (K 25), WT, checkerboard
  MIC: 16 µg/mL
